# Measured values reported in patent US4929601A, “Tripeptides useful as immunostimulants as well as in the prevention of metastases” (Ellem Industria Farmaceutica, S.p.A., priority 1987, dated 1990).
# How the values were obtained:
# Format in all cases: cell-based
# [1] = system: PHA-stimulated human T lymphocytes; test: RNA synthesis in PHA-stimulated human T lymphocytes in vitro (3H-uridine); details: for RNA synthesis, 3H-uridine c.p.m. (mean): control 3835
# Method: Human T lymphocytes, incubated in vitro for 24 hours in presence of 0.5% phytohemagglutinin (PHA) and different concentrations of the tripeptides under examination, have been analyzed for RNA synthesis (cell activation) by means of 3H-uridine labelling.
# [2] = system: pure human T lymphocytes, without macrophages; test: Lymphokine production by pure human T lymphocytes without macrophages (+IL-1): TCGF activity
# Text: The supernatants have been collected, filtered (0.2 μm) and assayed for the presence of IL-2 or BCGF activity, by adding them at different concentrations to fresh T lymphocytes or to long term cultured B cells. The proliferating activity of these cells, dependent on the presence of the respective growth factor, has been evaluated through 3H-thymidine incorporation.
# The lymphokine production by human T lymphocytes purified through […] on nylon wool column has been evaluated with the same methods as in the previous experiment.
# In order to obviate the lack of macrophages, recombinant IL-1 β (Genzyme) has been added at the concentration of 25 Units/ml.
# [3] = system: PHA-stimulated human T lymphocytes; test: DNA synthesis in PHA-stimulated human T lymphocytes in vitro (3H-thymidine); details: for DNA synthesis, 3H-thymidine c.p.m. (mean): control 22642
# Method: Human T lymphocytes, incubated in vitro for 72 hours in presence of 0.5% PHA and different concentrations of the tripeptides under examination, have been analyzed for DNA synthesis (cell proliferation) by means of 3H-thymidine labelling.
compound,measurement,setting,value
"N=C(N)NCCC[C@H](N)C(=O)NCC(=O)N[C@@H](CC(=O)O)C(=O)O [ARG--GLY--ASP, L-Arginyl-glycyl-L-aspartic acid]",PHA-induced human T lymphocyte activation (RNA synthesis),"[1]; 24 hours, 0.5% PHA",able to increase
same,RNA synthesis Δ %,[1]; peptide 0.0001 mcg/ml,-3%
same,"RNA synthesis, 3H-uridine c.p.m. (mean)","[1]; peptide 0.0001 mcg/ml, 24 hours, 0.5% PHA",3703 c.p.m.
same,RNA synthesis Δ %,[1]; peptide 0.001 mcg/ml,-2%
same,"RNA synthesis, 3H-uridine c.p.m. (mean)","[1]; peptide 0.001 mcg/ml, 24 hours, 0.5% PHA",3741 c.p.m.
same,RNA synthesis Δ %,[1]; peptide 0.01 mcg/ml,+11%
same,"RNA synthesis, 3H-uridine c.p.m. (mean)","[1]; peptide 0.01 mcg/ml, 24 hours, 0.5% PHA",4259 c.p.m.
same,RNA synthesis Δ %,[1]; peptide 0.1 mcg/ml,+18%
same,"RNA synthesis, 3H-uridine c.p.m. (mean)","[1]; peptide 0.1 mcg/ml, 24 hours, 0.5% PHA",4516 c.p.m.
same,RNA synthesis Δ %,[1]; peptide 1 mcg/ml,+6%
same,"RNA synthesis, 3H-uridine c.p.m. (mean)","[1]; peptide 1 mcg/ml, 24 hours, 0.5% PHA",4068 c.p.m.
same,RNA synthesis Δ %,[1]; peptide 10 mcg/ml,+9%
same,"RNA synthesis, 3H-uridine c.p.m. (mean)","[1]; peptide 10 mcg/ml, 24 hours, 0.5% PHA",4199 c.p.m.
same,TCGF activity Δ %,"[2]; 1 mcg/ml, 3.125% of supernatant",+17%
same,TCGF ACTIVITY c.p.m.,"[2]; 1 mcg/ml, 3.125% of supernatant, T + PHA + IL-1 1696",1984 c.p.m.
same,TCGF activity Δ %,"[2]; 1 mcg/ml, 6.25% of supernatant",+145%
same,TCGF ACTIVITY c.p.m.,"[2]; 1 mcg/ml, 6.25% of supernatant, T + PHA + IL-1 2817",6893 c.p.m.
same,TCGF activity Δ %,"[2]; 1 mcg/ml, 12.5% of supernatant",+259%
same,TCGF ACTIVITY c.p.m.,"[2]; 1 mcg/ml, 12.5% of supernatant, T + PHA + IL-1 3663",13147 c.p.m.
same,TCGF activity Δ %,"[2]; 1 mcg/ml, 25% of supernatant",+209%
same,TCGF ACTIVITY c.p.m.,"[2]; 1 mcg/ml, 25% of supernatant, T + PHA + IL-1 4812",14862 c.p.m.
same,TCGF activity Δ %,"[2]; 1 mcg/ml, 50% of supernatant",+149%
same,TCGF ACTIVITY c.p.m.,"[2]; 1 mcg/ml, 50% of supernatant, T + PHA + IL-1 6297",15654 c.p.m.
same,TCGF activity Δ %,"[2]; 10 mcg/ml, 3.125% of supernatant",+2%
same,TCGF ACTIVITY c.p.m.,"[2]; 10 mcg/ml, 3.125% of supernatant, T + PHA + IL-1 1696",1736 c.p.m.
same,TCGF activity Δ %,"[2]; 10 mcg/ml, 6.25% of supernatant",+125%
same,TCGF ACTIVITY c.p.m.,"[2]; 10 mcg/ml, 6.25% of supernatant, T + PHA + IL-1 2817",6342 c.p.m.
same,TCGF activity Δ %,"[2]; 10 mcg/ml, 12.5% of supernatant",+279%
same,TCGF ACTIVITY c.p.m.,"[2]; 10 mcg/ml, 12.5% of supernatant, T + PHA + IL-1 3663",13874 c.p.m.
same,TCGF activity Δ %,"[2]; 10 mcg/ml, 25% of supernatant",+128%
same,TCGF ACTIVITY c.p.m.,"[2]; 10 mcg/ml, 25% of supernatant, T + PHA + IL-1 4812",10968 c.p.m.
same,TCGF activity Δ %,"[2]; 10 mcg/ml, 50% of supernatant",+113%
same,TCGF ACTIVITY c.p.m.,"[2]; 10 mcg/ml, 50% of supernatant, T + PHA + IL-1 6297",13427 c.p.m.
same,PHA-induced human T lymphocyte proliferation (DNA synthesis),"[3]; 72 hours, 0.5% PHA",able to increase
same,DNA synthesis Δ %,[3]; peptide 0.0001 mcg/ml,-3%
same,"DNA synthesis, 3H-thymidine c.p.m. (mean)","[3]; peptide 0.0001 mcg/ml, 72 hours, 0.5% PHA",22002 c.p.m.
same,DNA synthesis Δ %,[3]; peptide 0.001 mcg/ml,+4%
same,"DNA synthesis, 3H-thymidine c.p.m. (mean)","[3]; peptide 0.001 mcg/ml, 72 hours, 0.5% PHA",23519 c.p.m.
same,DNA synthesis Δ %,[3]; peptide 0.01 mcg/ml,+6%
same,"DNA synthesis, 3H-thymidine c.p.m. (mean)","[3]; peptide 0.01 mcg/ml, 72 hours, 0.5% PHA",24034 c.p.m.
same,DNA synthesis Δ %,[3]; peptide 0.1 mcg/ml,+17%
same,"DNA synthesis, 3H-thymidine c.p.m. (mean)","[3]; peptide 0.1 mcg/ml, 72 hours, 0.5% PHA",25814 c.p.m.
same,DNA synthesis Δ %,[3]; peptide 1 mcg/ml,+11%
same,"DNA synthesis, 3H-thymidine c.p.m. (mean)","[3]; peptide 1 mcg/ml, 72 hours, 0.5% PHA",25163 c.p.m.
same,DNA synthesis Δ %,[3]; peptide 10 mcg/ml,+6%
same,"DNA synthesis, 3H-thymidine c.p.m. (mean)","[3]; peptide 10 mcg/ml, 72 hours, 0.5% PHA",24111 c.p.m.
